Laboratory results from patent US20060089395A1, “Nf-kb activation inhibitors” (priority 2002, published 2006).
Entries after “also recorded” stand apart in the source; their conditions may differ. Where two headings read alike, the source gives them in different places.

Key:
[1] = system: Vascular smooth muscle cells of normal coronary artery (Cryo CASMC); assay: Inhibitory test against proliferation of vascular smooth muscle cells of normal coronary artery under proliferation stimulation (MTS assay); type: cell-based; conditions: FGF and EGF stimulation, 72 hours
Experimental: Vascular smooth muscle cells of normal coronary artery (Cryo CASMC) were cultured for 2 hours in the presence or absence of a test substance in DMEM medium containing 0.5% of FBS and insulin (5 u g/ml). Then, FGF and EGF were added for proliferation stimulation. The mixture was cultured for 72 hours and proliferation of the cells were measured by the MTS assay. The results aree shown in the following

NF-κ B = assay: Inhibitory activity of NF-κ B activation, luciferase reporter assay in HepG2 under TNF-α stimulation; type: cell-based, human
Procedure, shortened: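 HepG2 cells transiently transfected with a luciferase reporter driven by five tandem NF-κB binding sites, then incubated 6–24 h. Stimulated with TNF-α (40 ng/ml) with or without test compound for 4 h. Intracellular luciferase read by chemiluminescence; inhibition expressed relative to activity without compound.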

PGE2 = assay: Inhibition of PGE2 production by TNFα stimulation in synovial fibroblasts derived from a rheumatoid patient (EIA); type: cell-based, human; conditions: for IC50: synovial fibroblasts, read-out: Inhibition against Mediator Release IC50(nM) PGE2; for Inhibitory ratios (%) at 1000 nM, PGE2: in parentheses
Experimental: (§1) Synovial fibroblasts (Human Synoviocyte (RA-Positive), Toyobo, T4040-05) were cultured for 3 days in a medium containing 10 ng/ml of TNFα and a test compound. IL-6 and IL-8 in the supernatant were measured by the ELISA method, and PGE2 (prostaglandin E2) was measured by the EIA method.

IL-8 = assay: Inhibition of IL-8 production by TNFα stimulation in synovial fibroblasts derived from a rheumatoid patient (ELISA); type: cell-based, human; conditions: for IC50: synovial fibroblasts, read-out: Inhibition against Mediator Release IC50(nM) IL-8; for inhibition at 1 µM: 1000 nM, in parentheses, read-out: Inhibitory ratios (%) at 1000 nM, IL-8
Experimental: as §1

IL-6 = assay: Inhibition of IL-6 production by TNFα stimulation in synovial fibroblasts derived from a rheumatoid patient (ELISA); type: cell-based, human; conditions: for IC50: synovial fibroblasts, read-out: Inhibition against Mediator Release IC50(nM) IL-6
Experimental: as §1

[2] = Homo sapiens, 1 μg/mL, HepG2, TNF-α (40 ng/ml), 4 hours, read-out: Inhibitory Ratio of NF-κ B Activation(%) Drug Concentration 1 μg/mL
[3] = Homo sapiens, 10 μg/mL, HepG2, TNF-α (40 ng/ml), 4 hours, read-out: Inhibitory Ratio of NF-κ B Activation(%) Drug Concentration 10 μg/mL
[4] = Homo sapiens, Fibroblast, 72 h, 10 ng/ml TNFα, 3 days
[5] = 1 μg/mL, HepG2, TNF-α (40 ng/ml), 4 hours
[6] = 10 μg/mL, HepG2, TNF-α (40 ng/ml), 4 hours
[7] = rheumatic patient-derived synovial fibroblasts under TNFα stimulation
[8] = Homo sapiens, Fibroblast, comparison compounds, TNFα stimulation

## CC(C)(C)C(=O)c1sc(NC(=O)c2cc(Cl)ccc2O)nc1C(C)(C)C [Compound No.199, 5-Chloro-N-{4-[(1,1-dimethyl)ethyl]-5-[(2,2-dimethyl)propionyl]thiazol-2-yl)-2-hydroxybenzamide]
[1]
  Inhibitory Ratio of Proliferation(%) Compound Concentration 250 nM: 35.1%
  Inhibitory Ratio of Proliferation(%) Compound Concentration 500 nM: 84.6%
NF-κ B; Homo sapiens, HepG2, 4 h, 0.1 μg/ml, comparison table, reporter assay, read-out: Inhibitory Ratio of NF-κB Activation (%) 0.1 μg/ml
  inhibition at 0.1 µg/mL: 19.6%
NF-κ B; Homo sapiens, HepG2, 4 h, 1 μg/ml, comparison table, reporter assay, read-out: Inhibitory Ratio of NF-κB Activation (%) 1 μg/ml
  inhibition at 1 µg/mL: 96.4%
NF-κ B; Homo sapiens, HepG2, 4 h, 10 μg/ml, comparison table, reporter assay, read-out: Inhibitory Ratio of NF-κB Activation (%) 10 μg/ml
  inhibition at 10 µg/mL: 98.4%
NF-κ B; [2]
  inhibition at 1 µg/mL: 96.4%
NF-κ B; [3]
  inhibition at 10 µg/mL: 98.4%
PGE2; [4]
  IC50: 68 nM
IL-8; [4]
  IC50: 458 nM
IL-6; [4]
  IC50: 309 nM

## O=C(Nc1cc(C(F)(F)F)cc(C(F)(F)F)c1)c1cc(C=Cc2ccccc2)ccc1O [Compound No. 19]
[1]
  Inhibitory Ratio of Proliferation(%) Compound Concentration 250 nM: 34.0%
  Inhibitory Ratio of Proliferation(%) Compound Concentration 500 nM: 88.6%
NF-κ B; [5]
  Inhibitory Ratio of NF-κ B Activation(%) Drug Concentration 1 μg/mL: 95.5%
NF-κ B; [6]
  Inhibitory Ratio of NF-κ B Activation(%) Drug Concentration 10 μg/mL: 96.9%

## O=C(Nc1cc(C(F)(F)F)cc(C(F)(F)F)c1)c1cc(-c2ccccc2)ccc1O [Compound No. 23]
[1]
  Inhibitory Ratio of Proliferation(%) Compound Concentration 250 nM: 31.6%
  Inhibitory Ratio of Proliferation(%) Compound Concentration 500 nM: 89%
NF-κ B; [5]
  Inhibitory Ratio of NF-κ B Activation(%) Drug Concentration 1 μg/mL: 91.8%
NF-κ B; [6]
  Inhibitory Ratio of NF-κ B Activation(%) Drug Concentration 10 μg/mL: 96.8%
PGE2; 10 ng/ml TNFα, 3 days
  IC50: 809 nM
IL-8; 10 ng/ml TNFα, 3 days
  IC50: 876 nM
IL-6; 10 ng/ml TNFα, 3 days
  IC50: 540 nM

## O=C(Nc1cc(C(F)(F)F)cc(C(F)(F)F)c1)c1cc(-n2cccc2)ccc1O [Compound No. 27]
NF-κ B; [5]
  Inhibitory Ratio of NF-κ B Activation(%) Drug Concentration 1 μg/mL: 93.8%
NF-κ B; [6]
  Inhibitory Ratio of NF-κ B Activation(%) Drug Concentration 10 μg/mL: 97.9%
PGE2; 10 ng/ml TNFα, 3 days
  IC50: 532 nM
IL-8; 10 ng/ml TNFα, 3 days
  IC50: 527 nM
IL-6; 10 ng/ml TNFα, 3 days
  IC50: 355 nM

## O=C(Nc1cc(C(F)(F)F)cc(C(F)(F)F)c1)c1cc(-c2ccsc2)ccc1O [Compound No. 29]
[1]
  Inhibitory Ratio of Proliferation(%) Compound Concentration 250 nM: 52.2%
  Inhibitory Ratio of Proliferation(%) Compound Concentration 500 nM: 90.4%
NF-κ B; [5]
  Inhibitory Ratio of NF-κ B Activation(%) Drug Concentration 1 μg/mL: 81.7%
NF-κ B; [6]
  Inhibitory Ratio of NF-κ B Activation(%) Drug Concentration 10 μg/mL: 92.9%

## O=C(Nc1cc(C(F)(F)F)cc(C(F)(F)F)c1)c1c(O)cccc1F [Compound No. 63]
NF-κ B; [5]
  Inhibitory Ratio of NF-κ B Activation(%) Drug Concentration 1 μg/mL: 85.4%
NF-κ B; [6]
  Inhibitory Ratio of NF-κ B Activation(%) Drug Concentration 10 μg/mL: 85.0%
PGE2; 10 ng/ml TNFα, 3 days
  IC50: 439 nM
IL-8; 10 ng/ml TNFα, 3 days
  IC50: 786 nM
IL-6; 10 ng/ml TNFα, 3 days
  IC50: 513 nM

## O=C(Nc1cc(C(F)(F)F)cc(C(F)(F)F)c1)c1ccc2ccccc2c1O [Compound No. 71]
[1]
  Inhibitory Ratio of Proliferation(%) Compound Concentration 250 nM: 81.6%
  Inhibitory Ratio of Proliferation(%) Compound Concentration 500 nM: 92.4%
NF-κ B; [5]
  Inhibitory Ratio of NF-κ B Activation(%) Drug Concentration 1 μg/mL: 89.6%
NF-κ B; [6]
  Inhibitory Ratio of NF-κ B Activation(%) Drug Concentration 10 μg/mL: 95.0%

## O=C(Nc1cc(C(F)(F)F)cc(C(F)(F)F)c1)c1c(O)ccc2ccccc12 [Compound No. 73]
NF-κ B; [5]
  Inhibitory Ratio of NF-κ B Activation(%) Drug Concentration 1 μg/mL: 93.1%
NF-κ B; [6]
  Inhibitory Ratio of NF-κ B Activation(%) Drug Concentration 10 μg/mL: 97.9%
PGE2; 10 ng/ml TNFα, 3 days
  IC50: 662 nM
IL-8; 10 ng/ml TNFα, 3 days
  IC50: 670 nM
IL-6; 10 ng/ml TNFα, 3 days
  IC50: 337 nM

## COc1ccc(C(C)(C)C)cc1NC(=O)c1cc(Cl)ccc1O [Compound No. 135, 5-chloro-N-{5-[(1,1-dimethyl)ethyl]-2-methoxyphenyl}-2-hydroxybenzamide]
NF-κ B; [2]
  inhibition at 1 µg/mL: 86.2%
NF-κ B; [3]
  inhibition at 10 µg/mL: 99.2%
PGE2; [4]
  IC50: 41 nM
PGE2; [7]
  inhibition of the production of PGE2 (in words): potently inhibited; also recorded: strongly inhibited
IL-8; [7]
  inhibition of the production of IL-8 (in words): potently inhibited; also recorded: strongly inhibited
IL-6; [4]
  IC50: 61 nM
IL-6; [7]
  inhibition of the production of IL-6 (in words): potently inhibited; also recorded: strongly inhibited

## CC(C)(C)c1cc(NC(=O)c2cc(Br)ccc2O)cc(C(C)(C)C)c1 [Compound No. 140]
[1]
  Inhibitory Ratio of Proliferation(%) Compound Concentration 250 nM: 4.3%
  Inhibitory Ratio of Proliferation(%) Compound Concentration 500 nM: 86.1%
NF-κ B; [5]
  Inhibitory Ratio of NF-κ B Activation(%) Drug Concentration 1 μg/mL: 70.9%
NF-κ B; [6]
  Inhibitory Ratio of NF-κ B Activation(%) Drug Concentration 10 μg/mL: 82.0%
PGE2; 10 ng/ml TNFα, 3 days
  IC50: 21 nM
IL-6; 10 ng/ml TNFα, 3 days
  IC50: 808 nM

## COc1ccc(Oc2ccc(C(F)(F)F)cc2NC(=O)c2cc(Cl)ccc2O)cc1 [Compound No. 253]
[1]
  Inhibitory Ratio of Proliferation(%) Compound Concentration 250 nM: 84.1%
  Inhibitory Ratio of Proliferation(%) Compound Concentration 500 nM: 91%
NF-κ B; [5]
  Inhibitory Ratio of NF-κ B Activation(%) Drug Concentration 1 μg/mL: 96.3%
NF-κ B; [6]
  Inhibitory Ratio of NF-κ B Activation(%) Drug Concentration 10 μg/mL: 99.5%

## O=C(Nc1cc(C(F)(F)F)ccc1C(F)(F)F)c1cc(Br)ccc1O [Compound No. 268]
[1]
  Inhibitory Ratio of Proliferation(%) Compound Concentration 250 nM: 5.6%
  Inhibitory Ratio of Proliferation(%) Compound Concentration 500 nM: 9.8%
NF-κ B; [5]
  Inhibitory Ratio of NF-κ B Activation(%) Drug Concentration 1 μg/mL: 87.1%
NF-κ B; [6]
  Inhibitory Ratio of NF-κ B Activation(%) Drug Concentration 10 μg/mL: 98.4%

## O=C(Nc1ccc(C(F)(F)F)cc1Cl)c1cc(Br)ccc1O [Reference Example 7, N-[2-chloro-4-(trifluoromethyl)phenyl]-5-bromo-2-hydroxybenzamide, reference compound]
PGE2
  Inhibitory ratios (%) at 1000 nM, PGE2: 10%
PGE2; [8]
  IC50: > 1000 nM
IL-8; Homo sapiens, Fibroblast, 72 h
  inhibition at 1 µM: 16%
IL-8; [8]
  IC50: > 1000 nM
IL-6; 1000 nM, in parentheses
  Inhibitory ratios (%) at 1000 nM, IL-6: 27%
IL-6; [8]
  IC50: > 1000 nM

## O=C(Nc1ccc(Cl)c(Cl)c1)c1cc(Br)ccc1O [drawing 563, reference compound]
PGE2; [8]
  IC50: 208 nM
IL-8; Homo sapiens, Fibroblast, 72 h
  inhibition at 1 µM: -12%
IL-8; [8]
  IC50: > 1000 nM
IL-6; [8]
  IC50: 205 nM

## O=C(Nc1ccc(F)cc1F)c1cc([N+](=O)[O-])ccc1O [drawing 564, reference compound]
PGE2; [8]
  IC50: 62 nM
IL-8; Homo sapiens, Fibroblast, 72 h
  inhibition at 1 µM: -4.5%
IL-8; [8]
  IC50: > 1000 nM
IL-6; [8]
  IC50: 248 nM

## O=C(Nc1ccc(F)cc1F)c1cc(I)ccc1O [reference compound]
PGE2; [8]
  IC50: 730 nM
IL-8; Homo sapiens, Fibroblast, 72 h
  inhibition at 1 µM: -23%
IL-8; [8]
  IC50: > 1000 nM
IL-6; [8]
  IC50: 85 nM

## CC(=O)c1ccc(NC(=O)c2cc(I)ccc2O)cc1 [reference compound]
PGE2
  Inhibitory ratios (%) at 1000 nM, PGE2: −3.9%
PGE2; [8]
  IC50: > 1000 nM
IL-8; Homo sapiens, Fibroblast, 72 h
  inhibition at 1 µM: -5.9%
IL-8; [8]
  IC50: > 1000 nM
IL-6; [8]
  IC50: 82 nM

## O=C(Nc1ccc(-c2ccccc2)cc1)c1cc(C(F)(F)F)ccc1O [reference compound]
PGE2; [8]
  IC50: 292 nM
IL-8; Homo sapiens, Fibroblast, 72 h
  inhibition at 1 µM: -67%
IL-8; [8]
  IC50: > 1000 nM
IL-6; [8]
  IC50: 140 nM
